These results are taken from US5011828A, “Immunostimulating guanine derivatives, compositions and methods” (priority 1988, dated 1991).

The structures appear in SMILES notation. Values after ≈ are worked out from the molar mass of the structure shown.

The test system of series [1] is human peripheral blood lymphocytes (sheep red blood cells as antigen). The series is described as follows: Antigen-specific adjuvanticity: direct anti-SRBC plaque forming cells, human system. It is filed as cell-based. The note with it: for Peak Direct anti-SRBC PFC/Culture: Table 7, second group.
Series [2] relates to anti-TNP-BSA antibody titers in CBA/CaJ mice. The series is described as follows: In vivo anti-TNP-BSA antibody response (ELISA). The following applies: i.p., 0.2 ml at 5 mg/ml, 37 days. Also on record: species or system mouse. The method, then: FIG. 4 is a graph containing a number of plots that illustrate the in vivo kinetics of enhanced anti-trinitrophenyl bovine serum albumin (TNP-BSA) antibody responses elicited by contacting leukocytes in vivo with a composition containing 7-allyl-8-mercaptoguanosine (7a8MGuo). Here, the guanosine derivative (0.2 ml of 7a8MGuo at 5 mg/ml) was in a vehicle of 100 percent sesame oil (solid line) or 2 percent sesame oil in saline (dotted line) when introduced into the animal.
Three groups of CBA/CaJ mice were utilized. Each group was immunized with the TNP-BSA conjugate. […]
Antibody titers to TNP-BSA were determined over a period of 37 days using standard enzyme-linked immunosorbent assay (ELISA) procedures with TNP-BSA as antigen. […]
CBA/CaJ mice were immunized intraperitonally (i.p.) using a conjugate (TNP-BSA) prepared by the reaction of 2,4,6-trinitrobenzene sulfonic acid (TNBS) and bovine serum albumin (BSA) in a 0.28 molar cacodylate buffer, at pH 6.9. […] Anti-TNP-BSA antibody secretion from each group was thereafter monitored over a period of 37 days by standard enzyme-linked immunosorbant assay (ELISA) techniques using TNP-BSA as antigen.
Injections. […] Anti-TNP-BSA antibody titers were determined using standard techniques.
A general note: In an ELISA, binding on a coated surface is turned into a signal by an enzyme label.

Series [3] concerns CBA/CaJ thymocytes (irradiated BDF1 splenocyte stimulators). The series can be described thus: T cell proliferation in mixed leukocyte cultures, CBA/CaJ thymocytes. It is filed as cell-based, mouse. The note with it: Study 3, responder +, stimulator +. From the text:
A third and fourth study utilized thymocytes from CBA/CaJ mice as the stimulated (responder) cells, and irradiated BDFl mouse spleen cells as the stimulator cells. Two guanosine derivatives of the present invention, 7a8MGuo and 7a8oGuo, were used for these studies, with 8MGuo serving as positive control for one of the studies.
However, in the presence of interleukin-2 (IL-2), those cells develop responsiveness to allogeneic stimulation. The present studies utilizing thymocytes were therefore carried out in the presence of a co-stimulating amount of IL-2.
^1 Plus signs (+) are utilized to indicate the presence of the
^3 Allogeneic cells used to costimulate proliferation, after exposure
T Helper Cell Activation. 1.5×10^5 viable spleen cells from SJL mice or CBA/CaJ mouse thymocytes were cultured with or without an equal number of irradiated (2500 rads) spleen cells from CBA/CaJ or BDFl mice respectively, in 0.2 ml of culture medium in the presence of incremental concentrations of the exemplary 7,8-disubstituted guanine derivatives. The lymphocyte culture medium utilized was that described before, and was further supplemented with 2-mercaptoethanol to a final concentration of 50 uM. Thymocyte cultures also contained 10 percent (v/v) of a concanavalin A-conditioned rat spleen cell medium sold under the name Rat T Cell Monoclone by Collaborative Research. Following 90 hours of culture, one microCurie [^3 H]TdR per culture was admixed, and the resulting culture was maintained for a further six hour time period.
The cultures were harvested with a Brandel cell harvester (M24V, Biological Research and Development Laboratories, Rockville, Md.) onto glass fiber filter disks. Filter disks were transferred to plastic scintillation vials, covered with liquid scintillation cocktail, and counted in a Beckman LS5700 liquid scintillation counter.

The next series in a line: physchem. Format: physicochemical, human. From the text:
Solubilities in urine could be expected to be lower than those for water due to the relatively higher salt content in urine than is found in water.
Each sample was filtered through a 5 micron pore-sized filter, diluted as necessary with the HPLC mobile phase, and then quantified by HPLC.

By solubility is commonly meant the concentration that dissolves in the medium under given conditions. Consider `C=CCn1c(=S)n([C@@H]2O[C@H](CO)[C@@H](O)[C@H]2O)c2nc(N)[nH]c(=O)c21` [7a8MGuo, 7-(2-Propenyl)-8-thioxoguanosine], for which the “Peak Direct anti-SRBC PFC/Culture” value in series [1] (person a) is on record as 673 PFC/Culture; in series [1] (person b) it was 6475 PFC/Culture; in series [1] (person c), 3058 PFC/Culture. Further, the “Average 1 Log Plaque Values” in series [1] (Table 9, human, * = single study) is given as 45,630 ± 28,808 per micromole. The “anti-TNP-BSA antibody titer, ratio to control” value in series [2] (2 percent sesame oil in saline vehicle) is on record as “about 4 times”; in series [2] (100 percent sesame oil vehicle) it was “about 5 times”. Further, the “[3H] TdR Uptake” value is 21,400 ± 1200 counts per minute in series [3] (10^-4 M), 15,300 ± 600 counts per minute in series [3] (10^-5 M) and 11,800 ± 400 counts per minute in series [3] (10^-6 M). In addition, the “solubility in human urine, in words” value in the series “physchem” is “relatively insoluble”. Besides, in “physchem” (human, urine), the solubility at 18 h is 300 µg/mL (≈ 844 µM).
